# ChEMBL document CHEMBL3297705, “Discovery of 5,6,7,8-tetrahydropyrido[3,4-d]pyrimidine inhibitors of Erk2” (Bioorg Med Chem Lett, 2014)
# What was measured:
# [1] = biological target: T1, Mitogen-activated protein kinase 1 (Homo sapiens, UniProt P28482)
# Description: Inhibition of ERK2 in human HepG2 cells assessed as P90RSK phosphorylation at Ser380 after 1.5 hrs by fluorescence assay
# [2] = biological target: T1, Mitogen-activated protein kinase 1; remark: listed apart in the source
# Description: Inhibition of human recombinant N-terminal 6-His-tagged ERK2 expressed in Escherichia coli using S/T17 as substrate after 30 mins by spectrophotometry
# [3] = biological target: Cyclin-dependent kinase 2 (Homo sapiens, UniProt P24941)
# Description: Inhibition of Cdk2 (unknown origin)
# [4] = Plasma protein binding in human; assay type: ADME, cell-free; conditions: read-out: PPB (converted)
# T1 sequence (P28482 whole entry): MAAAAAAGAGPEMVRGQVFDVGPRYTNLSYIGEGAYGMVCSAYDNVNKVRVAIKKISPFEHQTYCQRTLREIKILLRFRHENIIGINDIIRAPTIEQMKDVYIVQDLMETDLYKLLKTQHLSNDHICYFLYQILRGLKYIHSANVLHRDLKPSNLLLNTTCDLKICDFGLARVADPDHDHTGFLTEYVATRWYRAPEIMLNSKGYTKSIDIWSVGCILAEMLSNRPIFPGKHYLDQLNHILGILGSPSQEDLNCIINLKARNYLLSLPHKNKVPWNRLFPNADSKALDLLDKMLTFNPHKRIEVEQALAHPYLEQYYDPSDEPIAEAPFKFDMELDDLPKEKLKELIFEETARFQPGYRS
Compound,IC50 [1],IC50 [2],IC50 [3],fraction unbound [4]
CC(C)Nc1ncc2c(n1)CN(C(=O)NCc1ccc(Cl)c(F)c1)CC2,1630 nM,81 nM,–,–
CC(C)Nc1ncc2c(n1)CN(C(=O)NCc1ccc(F)c(Cl)c1)CC2,1220 nM,66 nM,–,–
CC(C)Nc1ncc2c(n1)CN(C(=O)N[C@H](CO)c1ccc(F)c(Cl)c1)CC2,160 nM,4 nM,–,–
CC(C)Nc1ncc2c(n1)CN(C(=O)N[C@@H](c1ccc(F)c(Cl)c1)[C@@H](C)O)CC2,88 nM,3 nM,–,–
CC(C)Nc1ncc2c(n1)CN(C(=O)N[C@@H](c1ccc(F)c(Cl)c1)[C@H](C)O)CC2,200 nM,6 nM,–,–
CC[C@H](O)[C@@H](NC(=O)N1CCc2cnc(NC(C)C)nc2C1)c1ccc(F)c(Cl)c1,108 nM,2 nM,–,–
COC[C@@H](NC(=O)N1CCc2cnc(NC(C)C)nc2C1)c1ccc(F)c(Cl)c1,368 nM,11 nM,–,–
COCCOC[C@@H](NC(=O)N1CCc2cnc(NC(C)C)nc2C1)c1ccc(F)c(Cl)c1,2110 nM,122 nM,–,–
CC(C)Nc1ncc2c(n1)CN(C(=O)N[C@H](CN)c1ccc(F)c(Cl)c1)CC2,356 nM,2 nM,–,–
CNC[C@@H](NC(=O)N1CCc2cnc(NC(C)C)nc2C1)c1ccc(F)c(Cl)c1,144 nM,4 nM,–,–
CC(C)Nc1ncc2c(n1)CN(C(=O)N[C@H](CNCCO)c1ccc(F)c(Cl)c1)CC2,2760 nM,8 nM,–,–
CC(C)Nc1ncc2c(n1)CN(C(=O)N[C@H](CNS(C)(=O)=O)c1ccc(F)c(Cl)c1)CC2,917 nM,7 nM,–,–
C[C@@H](NC(=O)N1CCc2cnc(N[C@H]3CCO[C@@H](CO)C3)nc2C1)c1ccc(Cl)c(Cl)c1,7 nM,2 nM,2 nM,–
CNc1ncc2c(n1)CN(C(=O)N[C@H](CO)c1ccc(F)c(Cl)c1)CC2,2260 nM,43 nM,–,–
CCNc1ncc2c(n1)CN(C(=O)N[C@H](CO)c1ccc(F)c(Cl)c1)CC2,753 nM,20 nM,–,–
O=C(N[C@H](CO)c1ccc(F)c(Cl)c1)N1CCc2cnc(NCCO)nc2C1,2450 nM,9 nM,–,–
O=C(N[C@H](CO)c1ccc(F)c(Cl)c1)N1CCc2cnc(NC3CCCC3)nc2C1,330 nM,4 nM,–,–
C[C@@H](CO)Nc1ncc2c(n1)CN(C(=O)N[C@H](C)c1ccc(Cl)c(Cl)c1)CC2,21 nM,1 nM,104 nM,0.03
CC[C@@H](NC(=O)N1CCc2cnc(N[C@@H](C)CO)nc2C1)c1ccc(F)c(F)c1,51 nM,3 nM,13 nM,0.226
CC[C@@H](NC(=O)N1CCc2cnc(N[C@@H](C)CO)nc2C1)c1ccc(Cl)c(Cl)c1,23 nM,2 nM,12 nM,0.025
C[C@@H](CO)Nc1ncc2c(n1)CN(C(=O)N[C@H](C)c1ccc(C(F)(F)F)c(F)c1)CC2,110 nM,3 nM,821 nM,0.013
CC[C@@H](NC(=O)N1CCc2cnc(N[C@@H](C)CO)nc2C1)c1ccc(OC)c(Cl)c1,14 nM,2 nM,71 nM,0.081
